Experimental data as given in article PMC4919375, “Improved in vivo antitumor effect of a daunorubicin - GnRH-III bioconjugate modified by apoptosis inducing agent butyric acid on colorectal carcinoma bearing mice” (Investigational New Drugs, 2016).

Assays:
[1] = system: NSG healthy mice; experiment: Chronic toxicity of daunorubicin on NSG healthy mice; assay type: in vivo, mouse
Experimental: NSG adult male mice, weighing 26–34 g, were used. Daunorubicin was dissolved in distilled water at a concentration that allowed the dose to be given in a volume of 0.1 mL/10 g body weight. In this experiment, each group consisted of 3 mice, which were treated by intraperitoneal (i.p.) administration on days 1, 4, 8, 12 and 16. The toxicity was assessed on the basis of lifespan and body weight and the survival time was followed for 20 days.

[2] = system: HT-29 orthotopic primary human colon carcinoma; experiment: Tumor growth inhibition, orthotopic HT-29 human colon carcinoma in NSG mice; assay type: in vivo, mouse; settings: orthotopic HT-29 in NSG mice, Dau 1 mg/kg i.v. weekly x7, 7 mice/group; for Tumor growth inhibition compared to the control group: tumor weight on day 50, bioconjugates 15 mg Dau content/kg i.v. x5 then 7.5 mg Dau content/kg i.p. x8, twice a week; for Tumor weight on day 50 after tumor transplantation: relative to control, bioconjugates 15 mg Dau content/kg i.v. x5 then 7.5 mg/kg i.p. x8, mean
Text: Female NSG mice, weighing 24–28 g, were used in this study. The xenografts were established by subcutaneous injection of ca. 10^6 HT-29 (GnRH receptor positive) human colon carcinoma cells, which were from ATCC and cultured according to their standards. The mice with palpable tumors were killed by cervical-dislocation, disinfected with iodine, and the subcutaneous tumor was dissected out aseptically. Tumor pieces of 2–3 mm^3 were transplanted under aseptic conditions, orthotopically, into narcotized NSG mice.
For direct implantation, mice were anesthetized (narcotic mixture: tiletamine, zolazepam, xylazine, butorphanol) and the abdomen was sterilized with iodine and alcohol swabs. A small midline incision (0.5 cm) was made and the colorectal part of the intestine was exteriorized. Serosa of the site where the tumor pieces were to be implanted was removed. A piece of 2 mm^3 HT-29 human colon tumor was implanted on the top of the animal intestine; an 8/0 surgical (polypropylene) suture was used to suture it on the wall of the intestine. The intestine was returned to the abdominal cavity and the abdominal wall was closed with 4/0 surgical (polyglycolic acid) sutures. The wound was sterilized with iodine and alcohol swab again and the animals were kept in a sterile environment. For pain release and rehydration, mice were treated s.c. with 100 mg/kg algopyrine in Ringer solution containing 5 % glucose. On the next day, no signs of pain and stress of mice were observed.
(§1) Based on the results of the chronic toxicity study, we used only 1 mg (1.773 μmol)/kg free Dau, weekly, in the Dau treated group. Thirteen treatments were applied from the day 5 after tumor transplantation until the day 50 in the groups treated with the bioconjugates (every Monday and Thursday). The treatments were performed by i.v. (intravenous) or i.p. administration; the compounds were dissolved in distilled water (0.1 mL/10 g body weight).
In this experiment, 7 mice/group were used for the treatment with the bioconjugates (GnRH-III[^4Lys(Ac),^8Lys(Dau = Aoa)] and GnRH-III[^4Lys(Bu),^8Lys(Dau = Aoa)]) as well as in the control group.
The bioconjugates were administered at different doses during the treatment period. In the first five treatments, they were i.v. administered, at a dose of 28.435 μmol/kg body weight (15 mg Dau content in the bioconjugate/kg). From the 6th to the 13th treatment, they were i.p. administered at a dose of 14.217 μmol/kg body weight (7.5 mg Dau content in the bioconjugate/kg). The first five doses represented the initial round of treatments, which was followed by the maintenance therapy. […]
After that, the tumors were removed and the tumor weight was determined in all cases. […]

[3] = system: liver; experiment: Macroscopic liver toxicity (liver weight); assay type: in vivo, mouse; settings: Dau 1 mg/kg i.v. weekly x7; for Liver weight on day 50 after tumor transplantation: relative to control, HT-29 bearing NSG mice, bioconjugates 15 then 7.5 mg Dau content/kg twice a week, mean
Experimental: as §1
(§2) The bioconjugates were administered at different doses during the treatment period. In the first five treatments, they were i.v. administered, at a dose of 28.435 μmol/kg body weight (15 mg Dau content in the bioconjugate/kg). From the 6th to the 13th treatment, they were i.p. administered at a dose of 14.217 μmol/kg body weight (7.5 mg Dau content in the bioconjugate/kg). The first five doses represented the initial round of treatments, which was followed by the maintenance therapy. In the maintenance treatments, 5 % glucose solution instead of distilled water was used, in order to minimize the harmful effects of tfa salts that were present in the lyophilized bioconjugates.
(§3) The mice from all groups were sacrificed by deadly overslept cocktail (0.3 mL/mouse concentrated nembutal (pentobarbitone) solution), on day 50 after tumor transplantation.

[4] = system: heart; experiment: Liver- and cardiotoxicity, histological examination and side effects; assay type: in vivo, mouse; settings: at the applied doses; liver weight, hematoxylin and eosin histology of heart, light microscopy
Text: The removed and fixed tissue samples were dehydrated in a graded series of ethanol, infiltrated with xylene and embedded into paraffin. Histological sections were stained with Harris hematoxylin and eosin (10:1, v/v, 1 % solutions) in acidified 70 % ethanol and mounted. The histological samples were examined under a light microscope (Olympus CH30, Olympus Optical, Japan).

[5] = system: HT-29 orthotopic primary human colon carcinoma; experiment: Macroscopic metastases on different organs; assay type: in vivo, mouse; settings: orthotopic HT-29 in NSG mice, day 50; 7 animals in each group
Experimental: as §1, §2, §3

[6] = system: HT-29 orthotopic primary human colon carcinoma; experiment: Proliferative index in orthotopic HT-29 tumor tissues (BrdU); assay type: in vivo, mouse; settings: orthotopic HT-29 in NSG mice, BrdU positive cells; relative to control; mean
Experimental: (§4) Before ending the experiment (30 min prior to sacrificing the mice), the tumor bearing animals were injected i.p. with 5-bromo-2 V-deoxyuridine (BrdU, 200 mg/kg; Sigma-Aldrich Kft, Budapest, Hungary). After 6 h, 5–7 μm thick tissue sections were excised from the newly frozen tumors and used for the detection of BrdU positive cells using an anti-BrdU monoclonal antibody (Becton Dickinson Hungary Kft., Budapest, Hungary), according to the manufacturer’s protocol. Positive cells were visualized with TRITC-conjugated anti-mouse IgG (1:100, Sigma). Endothelial cells were distinguished from tumor cells by treating the samples with rat anti-mouse CD31 antibody and labelled with biotinylated anti-rat IgG and streptavidin-FITC (Vector Laboratories, Burlingame, CA). The nuclei were stained with the Hoechst 33,342 dye (Molecular Probes, Eugene, OR). The number of labelled HT-29 tumor cells and the quantity of CD31-positive samples were determined in two different tumors by microscopic analysis of 6 independent regions. The vascularization extent of primary tumors was determined by microscopic analysis of two different living tumors, where four independent areas of living cells were counted and the percentage of separated endothelial cells covering a 10× magnification field of vision was calculated.

[7] = system: HT-29 orthotopic primary human colon carcinoma; experiment: Vascularization in orthotopic HT-29 tumor tissues (CD31); assay type: in vivo, mouse; settings: orthotopic HT-29 in NSG mice, CD31-positive endothelial cells; control 100 %; mean
Experimental: as §4

[8] = system: GnRH receptor; settings: butyrated compared with acetylated bioconjugate; cited from earlier work
Text: (§5) In our research, lamprey GnRH-III (Glp-His-Trp-Ser-His-Asp-Trp-Lys-Pro-Gly-NH2, where Glp is pyroglutamic acid) has been employed as a key molecule for drug targeting. […] Thus, hormonal side effects in case of targeted tumor therapy using GnRH-III as a homing device are expected to be insignificant, this feature being important in the treatment of hormone independent tumors like colorectal cancer. Considering that lysine in position 8 of GnRH-III can be us ...

[9] = system: HT-29 human colon cancer cells; settings: cited from earlier work
Text: as §5

[10] = butyrated version compared with acetylated; previous in vitro studies; cited from earlier work
Text: In our research, GnRH-III peptide was mainly employed as a targeting moiety, due to its low endocrine effect in mammals and significant antiproliferative effect on different types of cancer cells. […] However, the efficacy of the bioconjugates was highly dependent on the tumor type and whether this was subcutaneously or orthotopically developed in mice. Orthotopically developed tumors represent the ...

| Compound | Tumor growth inhibition compared to the control group [2] | Tumor weight on day 50 after tumor transplantation [2] | Liver weight on day 50 after tumor transplantation [3] | Metastasis on diaphragm, animals affected/animals in group [5] | Metastasis on diaphragm, percent of animals [5] | Metastasis on liver, animals affected/animals in group [5] | Metastasis on liver, percent of animals [5] | Metastasis on lung, animals affected/animals in group [5] | Metastasis on lung, percent of animals [5] | Metastasis on lymph node, animals affected/animals in group [5] | Metastasis on pancreas, animals affected/animals in group [5] | Metastasis on pancreas, percent of animals [5] | Metastasis on spleen, animals affected/animals in group [5] | Metastasis on spleen, percent of animals [5] | Proliferation index (%) [6] | other results |
| --- | --- | --- | --- | --- | --- | --- | --- | --- | --- | --- | --- | --- | --- | --- | --- | --- |
| COc1cccc2c1C(=O)c1c(O)c3c(c(O)c1C2=O)C[C@@](O)(C(C)=O)C[C@@H]3O[C@H]1C[C@H](N)[C@H](O)[C@H](C)O1 [Daunorubicin] | about 30% | 70.3% | 89.1% | 3/7 | 42.9% | 7/7 | 100% | 7/7 | 100% | 4/7 | 0/7 | 0% | 0/7 | 0% | 98.6% | Day on which the first animal died ([1]; 1 mg/kg i.p. on days 1, 4, 8, 12 and 16, NSG healthy male mice, 3 mice/group, experiment stopped on day 20): 20 days; Mice died ([1]; 2 mg/kg i.p. on days 1, 4, 8, 12 and 16, died on day 13 after the fourth treatment, NSG healthy male mice, 3 mice/group): 2 of 3; Body weight change ([1]; 1 or 2 mg/kg i.p. on days 1, 4, 8, 12 and 16, both doses, NSG healthy male mice): significant loss of weight; Body weight of the animals at the end ([1]; decreased from ~30 g during 20 days, i.p. on days 1, 4, 8, 12 and 16, NSG healthy male mice): ~ 20 g; Maximum tolerated dose ([1]; immunodeficient tumor bearing mice): 1–2 mg/kg/week; Decrease of average liver weight ([3]; vs control, day 50, not significant): about 11%; Liver- or cardiotoxicity [4]: neither the bioconjugates nor the free daunorubicin showed any liver- or cardiotoxicity; Vascularization (number of blood vessels), to the control [7]: 112% |
| GnRH-III[^4Lys(Bu),^8Lys(Dau = Aoa)] | ~ 40% | 60.6% | 105.0% | 3/7 | 42.9% | 7/7 | 100% | 7/7 | 100% | 3/7 | 0/7 | 0% | 1/7 | 14.3% | 84.5% | Metastasis on lymph node, percent of animals [5]: 42.9%; Binding to the GnRH receptor (affinity) [8]: higher affinity; IC50 [9]: 2200 ± 600 nM; Cellular uptake [10]: higher receptor binding affinity and cellular uptake |
